In one data set the test system is 5-HT1A. The following applies: cited from earlier work.
For a further data set, the system named is 5-HT1A sites. As to conditions: 3H-8-OH-DPAT, rat brain homogenates; cited from earlier work.
Data set [1] concerns central dopamine receptor (DOPA accumulation in the striatum). Put plainly: In vivo rat brain tyrosine hydroxylation (DOPA accumulation, striatum) after reserpine pretreatment and NSD 1015. The following applies: sc, reserpine-pretreated rats, bracket = highest dose tested, read-out: Dopa ED50 (stri). How it is done: (§1) In vivo determination of a rat brain tyrosine and tryptophan hydroxylation after reserpine pretreatment (biochemically monitored dopamine and 5-HT receptor activity).
(§2) The compounds under evaluation were tested biochemically for central dopamine and 5-HT receptor (pre- and/or post-synaptic) stimulating activity. The concept of this biochemical screening method is that a dopamine or 5-HT-receptor agonist will stimulate the receptor and through regulatory feedback systems effect a decline in tyrosine or tryptophan hydroxylating activity, respectively, and a subsequent reduction in the synthesis rate for dopamine and 5-HT in the presynaptic neuron. Dopa and 5-HTP formation, as determined after in vivo inhibition of the aromatic L-amino acid decarboxylase with NSD 1015 (3-hydroxybenzylhydrazine hydrochloride) are taken as indirect measures of dopamine and 5-HT synthesis rates, respectively as described by Wikstrom et al., J. Med. Chem., 27, 1030, 1984.
Rats (150-300 g) pretreated with reserpine (5 mg/kg, 18 hours before) were given the test compounds. Gross behavioral observations (changes in motility, hindleg abduction, etc.) were made. […]

Data set [2] concerns motor activity / gross behavior (DA or 5-HT behavioral syndrome). Put plainly: Motor activity and gross behavior in reserpine-pretreated rats. It counts as in vivo, rat. From the text:
Antagonism of the reserpine-induced "neuroleptic syndrome" in the rat (gross behavior)
Depletion of the monoamine stores with reserpine brings about a "neuroleptic syndrome" characterized by hypomotility, catalepsy, muscle rigidity, hunch-backed posture as well as a number of other central and peripheral signs of monoamine depletion. The whole or parts of this syndrome can be reversed by the administration of drugs that stimulate dopamine or 5-HT receptors directly or indirectly.
Stimulation of the dopamine receptors, with apomorphine for example, gives rise to both locomotion and stereotyped behavior such as sniffing, gnawing and jumping. On the other hand, stimulation of the 5-HT receptors, with 5-hydroxytryptophan (5-HTP) combined with MAO-inhibitors for example, gives rise to a very different behavior.
(§3) Rats (150-300 g) pretreated with reserpine (5 mg/kg, 18 hours before) were given the test compounds. Gross behavioral observations (changes in motility, hindleg abduction, etc.) were made. Subsequent administration of NSD 1015, decapitation, brain dissection (corpora striata, the limbic forebrain and the remaining hemispheral portions (mainly cortex) or rat brain), homogenization, centrifugation, ion-exchange chromatography and spectrofluorimetric measurements (all as described in detail by Wikstrom, et al., M. Med. Chem., 21, 864-867, 1978 and reference cited therein), or by HPLC/EC, gave the actual […] and 5-HTP levels. Several doses (n=4-6) were tested for each compound and brain area. The dose of a compound giving 50% of the maximal reduction of the 5-HTP level in the rat brain part was then estimated.
(§4) "+" indicates a motoric activation of the animals.

The test system of data set [3] is central 5-HT receptor (5-HTP accumulation in the limbic forebrain). Put plainly: In vivo rat brain tryptophan hydroxylation (5-HTP accumulation, limbic forebrain) after reserpine pretreatment and NSD 1015. The following applies: reserpine-pretreated rats, read-out: 5-HTP ED50 (limb). How it is done:
as §1, §2, §3, §4

The nature of data set [4]: Blood pressure, heart rate and rectal temperature in awake spontaneously hypertensive rats (SHR). It counts as in vivo, rat (spontaneously hypertensive. As to conditions: for Δtemp max: rectal; for bioavailability: rat, in vivo. How it is done: (§5) The male spontaneously hypertensive rats (SHR), or normotensive Sprague-Dawley rats # were implanted wit catheters in the arteria carotis and vena jugularis. The blood pressure (BP), heart rate (HR) and rectal temperature were recorded 24 hours later in the awake rat after per oral (p.o.) or intravenous *i.v.) administration of test drugs. Recording time was at least 90 minutes. Shown are the maximal effects during the 90 min recording period expressed as the deviation from baseline values (SHR:BP; 174±6 mmHG, HR; 366±10 beats/min, RT; 38.7±0.15 C and normotensives: BP; 111±3 mmHG, HR; 369±15 beats/min, RT; 38.7±0.23 C, means ±SEM, n=7) (means ±SEM, n=3-4). In case of a biphasic response (heart rate) during the 90 min, both maximal and minimal levels are shown period. The bioavailability calculations were based on the areas under the curves after po and iv administration.
(§6) *denotes statistical significant difference (p<0.05, or less) compared to saline treated controls (ANOVA followed by Fischer's test).

Data set [5] deals with noradrenaline (NA) (α2) receptor. Put plainly: In vitro binding, brain noradrenaline alpha2 receptor sites. As to conditions: non-pretreated rats. Details: species or system rat.
A short description of data set [6]: Blood pressure, heart rate and rectal temperature in awake normotensive rats (#). It counts as in vivo, rat (normotensive Sprague-Dawley). The following applies: 0.2 μmol/kg i.v. The method, then:
as §5, §6

The subject of a further data set is central DA receptor. As to conditions: cited from earlier work.
For another data set, the system named is dopamine receptors. The following applies: cited from earlier work.
Data set [7] in a line: Stability remark on isolated product. It is filed as physicochemical.
The mark [8] stands for this setting: sc, bracket = highest dose tested.
The mark [9] stands for this setting: 2.0 μmol/kg i.v., (±) 13a / (±) 13b.
Setting [10] is: 2.0 μmol/kg i.v., second printed (±) 13a line (biphasic, maximal level) / first printed (±) 13b line.
Where [11] appears, read: 10.0 μmol/kg i.v., first printed (±) 13a line, no # printed.
Where [12] appears, read: 10.0 μmol/kg i.v., second printed (±) 13a line.
Where [13] appears, read: 10.0 μmol/kg p.o., (±) 13a (biphasic, maximal level) / first printed (±) 13b line.
The mark [14] stands for this setting: 10.0 μmol/kg p.o., (±) 13a / first (±) 13b.

Structures are written as SMILES. Where a name gives a salt, the structure may show the parent alone. Read-outs that look alike come from different tables or passages of the source. A value given as a limit tells only on which side of the number the result lay.

The ED50 is the dose at which the effect has come halfway, by size or by number of responders. Usually IC50 stands for the concentration at which inhibition is half-maximal.

On to `CN(C)C1CCc2ccc3[nH]ccc3c2C1` (racemic) [6,7,8,9-tetrahydro-N,N-dimethyl-3H-benz(e)indole-8-amine], for which, in the data set with 5-HT1A, the “5-HT1A agonist properties in vivo” value is on record as “exhibits 5-HT1A agonist properties in vivo”. The 5-HT1A binding affinity entry in the data set on 5-HT1A sites was “high affinity”.

Take `CCCN(CCC)C1CCc2ccc3[nH]ccc3c2C1` (racemic) [(±)-12b, 6,7,8,9-tetrahydro-N,N-dipropyl-3H-benz(e)indole-8-amine]: the ED50 in [1] was determined as 0.28 µmol/kg; in data set [3] (setting [8]), 0.1 µmol/kg. In data set [2] (sc), the “Mot. act. (+/-)” value was “DA + 5-HT”.

Consider `CN(C)C1CCc2ccc3[nH]cc(C=O)c3c2C1` (racemic) [(±)-13a, 1-Formyl-6,7,8,9-tetrahydro-N,N-dimethyl-3H-benz(e)indole-8-amine], for which the ΔBP max was -12 ± 4 mm Hg in data set [4] (2.0 μmol/kg i.v., (±) 13a); -60 ± 5 mm Hg in data set [4] (setting [9]); -23 ± 2 mm Hg in data set [4] (2.0 μmol/kg p.o.); -3 ± 1 mm Hg in [4] (setting [11]); -57 ± 4 mm Hg in [4] (setting [12]); -43 ± 22 mm Hg in data set [4] (setting [14]). Moreover, the ΔHR max result is recorded as “+35 ± 34 beats/min” in data set [4] (2.0 μmol/kg i.v., (±) 13a); “+55 ± 14 beats/min” in [4] (setting [10]); “+37 ± 44 beats/min” in [4] (2.0 μmol/kg p.o.); “+87 ± 18 beats/min” in data set [4] (10.0 μmol/kg i.v., (±) 13a, biphasic, maximal level); “+70 ± 47 beats/min” in data set [4] (setting [11]); “+24 ± 43 beats/min” in data set [4] (setting [13]). Further, the “ΔHR max (minimal level of biphasic response)” value is reported as -33 ± 23 beats/min in [4] (2.0 μmol/kg i.v., (±) 13a); -37 ± 3 beats/min in data set [4] (setting [12]); -39 ± 18 beats/min in [4] (10.0 μmol/kg p.o.). For the same molecule, the “duration ΔBP” value in data set [4] (setting [9]) is listed as 150 min; in data set [4] (setting [12]), over 90 min; in [4] (setting [14]), 75 min. In addition, the Δtemp max was -0.2 ± 0.65 °C in data set [4] (setting [9]); -0.2 ± 0.40 °C in [4] (2.0 μmol/kg i.v., (±) 13a); “+1.2 ± 0 °C” in data set [4] (2.0 μmol/kg p.o.); -1.0 ± 0.15 °C in data set [4] (setting [11]); -0.7 ± 0.33 °C in [4] (setting [12]); “+0.7 ± 0.32 °C” in [4] (setting [14]). In addition, the bioavailability in data set [4] (10 umol/kg, 10.0 μmol/kg p.o., from areas under the curves after po and iv administration, read-out: Bioavail) came to 48%. Further, the “Mot. act. (+/-)” value in data set [2] (po) and in data set [2] (sc) was “(+)5-HT” each time. The figures for the ED50 in data set [3] (po) and in [3] (setting [8]) were 7 µmol/kg and 4 µmol/kg, respectively.

Take `CCCN(CCC)C1CCc2ccc3[nH]cc(C=O)c3c2C1` (racemic) [(±)-13b, 1-formyl-6,7,8,9-tetrahydro-N,N-dipropyl-3H-benz(e)indole-8-amine]: the “duration ΔBP” value is listed as 90 min in data set [4] (setting [9]); over 120 min in data set [4] (setting [14]); 60 min in data set [4] (10.0 μmol/kg p.o., (±) 13b). For the same molecule, the ΔBP max in [4] (setting [9]) is reported as -35 ± 3 mm Hg; in [4] (2.0 μmol/kg i.v., (±) 13b), “+14 ± 1 mm Hg”; in data set [4] (setting [14]), -55 ± 5 mm Hg; in data set [4] (10.0 μmol/kg p.o., (±) 13b), “+28 ± 6 mm Hg”. Also, the Δtemp max in [4] (setting [9]) was -1.5 ± 0.3 °C; in [4] (2.0 μmol/kg i.v., (±) 13b) it was -1.6 ± 0.2 °C; in data set [4] (setting [14]), -1.0 ± 0.3 °C; in data set [4] (10.0 μmol/kg p.o., (±) 13b), -0.8 ± 0.4 °C. The ΔHR max in data set [4] (2.0 μmol/kg i.v., (±) 13b) is recorded as -70 ± 15 beats/min; in data set [4] (setting [10]) it was “+110 ± 10 beats/min”; in data set [4] (setting [13]) it was “+78 ± 11 beats/min”; in data set [4] (10.0 μmol/kg p.o., (±) 13b) it was “+70 ± 30 beats/min”. The molecule also came in with a bioavailability in [4] (po) of 36%. Moreover, the “Mot. act. (+/-)” value in [2] (sc) is “+5-HT”. The ED50 in [3] (setting [8]) was 0.06 µmol/kg. Further, the IC50 in data set [5] turned out to be 3700 nM.

As to `CCCN(CCC)C1COc2ccc3[nH]ccc3c2C1` (racemic) [(±)-21, 8-N,N-dipropylamino-8,9-dihydro-2H-pyrano-(3,2-e)-indol], the ED50 in data set [1] came to 1 µmol/kg; in data set [3] (setting [8]) it was 3.1 µmol/kg. Besides, the “Mot. act. (+/-)” value in data set [2] (sc) is recorded as “+DA”.

Turning to `CCCN(CCC)C1COc2ccc3[nH]cc(C=O)c3c2C1` (racemic) [(±)-22, 1-formyl-8-N,N-dipropylamino-8,9-dihydro-2H-pyrano-(3,2-e)indole], the “Mot. act. (+/-)” value in data set [2] (sc) is given as “+5-HT”. In addition, the ED50 in data set [3] (setting [8]) turned out to be 0.4 µmol/kg.

`CCCN(CCC)C1CCc2cccc(O)c2C1` (racemic) [Compound 8-OH-DPAT, reference compound] came in with a ΔBP max in data set [6] of -12 ± 6 mm Hg. In [6], the ΔHR max is -83 ± 16 beats/min. This molecule had a Δtemp max in data set [6] (rectal) of -1.5 ± 0.27 °C. Also, in data set [2] (sc), the “Mot. act. (+/-)” value is recorded as “++5-HT”. The ED50 in data set [3] (po) worked out at 3 µmol/kg; in [3] (setting [8]), 0.048 µmol/kg.

For `CCCN(CCC)C1CCc2cc3cc[nH]c3cc2C1` (stereo not drawn) [5,6,7,8-N,N-di-n-propyl-1H-benz(f)indole-7-amine], the dopaminergic activity entry with central DA receptor was “dopaminergically inactive”.

For the molecule `CN(C)[C@@H]1CCc2ccc3[nH]cc(C=O)c3c2C1` [(+)-13a, (+)-1-formyl-6,7,8,9-tetrahydro-N,N-dimethyl-3H-benz(e) indole-8-amine], the “Mot. act. (+/-)” value in [2] (sc) is “+5-HT”. The ED50 in data set [3] (setting [8]) was 1 µmol/kg. Besides, in data set [5], the IC50 worked out at 140 nM.

Consider `O=C1CC2(CCCC2)CC(=O)N1CCCCN1CCN(c2ncccn2)CC1` [Buspirone hydrochloride], for which, in the data set on dopamine receptors, the dopamine receptor antagonism entry is reported as “antagonizes dopamine receptors at the same dose it stimulates 5-HT1A receptors”.

As for `CN(C)C1CCc2ccc3[nH]cc(Br)c3c2C1` (stereo not drawn) [Example 12, 1-Bromo-6,7,8,9-tetrahydro-N,N-dimethyl-8-amino-3H-benz[e]indole], the “stability of the product” value in data set [7] is listed as “unstable”.

Turning to `CN(C)[C@@H]1CCc2ccc3[nH]ccc3c2C1` [R-6,7,8,9-tetrahydro-N,N-dimethyl-3H-benz(e)indole-8-amine], the 5-HT1A binding affinity entry in the data set on 5-HT1A sites is recorded as “high affinity”.

For `CC1(C)CC(=O)N(CCCCN2CCN(c3ncccn3)CC2)C(=O)C1` [gepirone], the dopamine receptor antagonism result in the data set on dopamine receptors was “has dopamine antagonist properties”.

(Values after patent publication US5461061A, “Centrally acting 6,7,8,9-tetrahydro-3H-benz(E)indole heterocyclics” (priority 1993, dated 1995).)
